From US20150290294A1, “METHODS FOR INHIBITING PLATELET AGGREGATION USING GLP-1 RECEPTOR AGONISTS” (priority 2012, published 2015)
Ends that are not written are not given here.

Key:
MEG-01 cells = test: Intracellular cAMP EIA assay; format: cell-based, human
Procedure: An EIA kit (Cayman Chemicals) was employed to measure intracellular cAMP levels. […] 3-isobutyl-1-methylxanthine (IBMX) was added to each well at a concentration of 0.5 μM and allowed to incubate for 10 min at 37° C. to inhibit phosphodiesterase activity. As a positive control for cAMP generation in MEG-01 cells, PGI2 was added at a concentration of 0.02 ng/ml to control wells and incubated for 10 min at 37° C. PBS was used as a negative control. After incubation, cells were lysed by adding EDTA to a concentration of 10 mM. Lysed cells were transferred to 1.5 ml eppendorf tubes and boiled for 5 min at 95° C. Samples were spun down at 10000 xg for 15 min at 4° C. Supernatant was removed and frozen at −80° C. The cAMP EIA kit assay was then carried out according to manufacturer's instructions.
Given the limited specificity of Abs raised against GPCRs, RT-PCR was performed on RNA from MEG-01 cells with primers designed to yield full-length human GLP-1R cDNA.

platelets = settings: associated with inhibitory effect on intracellular free calcium and tyrosine phosphorylation; cited from earlier work
[1] = test system: human gel-filtered platelets; test: Thrombin-induced platelet aggregation (aggregometer); format: cell-based; settings: for effect on thrombin-induced human platelet aggregation vs PBS control: 100 pM-1 uM (10^-10 to 10^-6 M); for effect on thrombin-induced human platelet aggregation vs PBS control / effect on human platelet aggregation after thrombin stimulation: 15 min 37 °C; for effect on human platelet aggregation after thrombin stimulation: 10 nM each, 0.5 U thrombin
Procedure: Platelets were then stimulated with thrombin and aggregation was measured using an aggregometer.

## CCCCC[C@H](O)/C=C/[C@@H]1[C@H]2C/C(=C/CCCC(=O)O)O[C@H]2C[C@H]1O [PGI2, prostacyclin PGI2, reference compound]
MEG-01 cells; PGI2 0.02 ng/ml, 10 min 37 °C
  cAMP response (positive control): 16 fold

## N[C@@H](CC(=O)N1CCn2c(nnc2C(F)(F)F)C1)Cc1cc(F)c(F)cc1F [sitagliptin]
platelets
  anti-platelet activity: exhibited anti-platelet activity

## GLP-1(7-36)
[1]; thrombin 0.125 U
  effect on thrombin-induced human platelet aggregation vs PBS control: delayed and reduced
[1]; thrombin 0.125 U, listed as GLP-1
  effect on thrombin-induced human platelet aggregation vs PBS control: delayed and reduced platelet aggregation
[1]
  effect on human platelet aggregation after thrombin stimulation: delayed human platelet aggregation
[1]; between 0.1 nM and 100 nM, thrombin 0.125 U, not significant, n=3
  total area under curve of aggregation: some inhibition of platelet activity
MEG-01 cells; 15 min incubation, 100 pM to 100 nM, n=3
  intracellular cAMP, qualitative: dose-dependent increase in cAMP

## GLP-1(9-36) (EGTFTSDVSSYLEGQAAKEFIAWLVKGR-NH2)
[1]
  effect on human platelet aggregation after thrombin stimulation: delayed human platelet aggregation
[1]; listed as GLP-1(9-36)^NH2
  effect on human platelet aggregation after thrombin stimulation: inhibited human platelet aggregation, but to a lesser extent than GLP-1(7-36)^NH2
